Measurements as given in PubChem BioAssay (NCI).
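Results reflect a 48-hour exposure of cells in 96-well plates to compound at five concentrations. GI50 is the concentration that inhibits growth by half. TGI marks complete inhibition of growth.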

These molecules were tested on OVCAR-4 ovarian (assay: NCI anticancer screen, dose series, 48 h).

`O=C1CCC(O)=C1N=Nc1ccccc1` and `O=C(c1ccccc1)C1OC12C(=O)Nc1ccccc12` (stereo unspecified) cannot be ordered by TGI: greater than 100 µM for the first, greater than 100 µM for the second.

First: CCN(CC)c1ccc(N=Nc2ccc(-c3nc4ccc[n+](C)c4s3)cc2)cc1
Second: CCn1c(SCc2ccc(C)cc2)nnc1-c1nn(-c2ccc(Cl)cc2Cl)c(-c2ccc(Cl)cc2)c1C
The TGI of the first is 1.6-fold higher: 20 µM for the first, 12.4 µM for the second.

`NC(=O)NCc1c(C(N)=O)ncn1Cc1ccccc1` and `O=C(O)[C@H](NS(=O)(=O)c1ccc([N+](=O)[O-])cc1)c1ccccc1` cannot be ordered by TGI: greater than 100 µM for the first, greater than 100 µM for the second.

Going from `Cn1c(=O)c(Cc2ccccc2F)cc2cnc(NC3CCOCC3)nc21` to `COc1c(CCl)cc(-c2cc(=O)c3ccccc3s2)cc1CCl`, the TGI falls from greater than 25 µM to 16.4 µM.

Compared with `O=C1CSC(/C(=N/Nc2ccccc2)c2nc3ccccc3[nH]2)=N1`, `Cc1c(C(=O)/C=C/c2ccccc2)[n+](=O)c2ccccc2n1[O-]` is lower in TGI: greater than 100 µM for the first, 33 µM for the second.

Going from `Cc1[nH]c2ccccc2c(=O)c1CC=C(Cl)Cl` to `COc1ccc(OC)c2c(C(=O)O)c(Cc3ccccc3)ccc12`, the TGI rises from 79.9 µM to greater than 100 µM.

`COc1ccc2nc(NC(=O)C(=O)C(C#N)c3ccc([N+](=O)[O-])cc3)sc2c1` (stereo unspecified) and `O=C(Nc1c(Cl)cc([N+](=O)[O-])cc1Cl)C(=O)C(C1OC(=O)c2ccccc21)[N+](=O)[O-]` (stereo unspecified) cannot be ordered by TGI: greater than 100 µM for the first, greater than 100 µM for the second.

`S=C1OC2CCCC[C@H]2O1` (stereo partly specified) and `N#CC1CC2(C1)OCCS2` (stereo unspecified) cannot be ordered by TGI: greater than 100 µM for the first, greater than 100 µM for the second.

`CSC(C1c2ccccc2N(c2ccc(C)cc2)c2[nH]c(=O)n(C)c(=O)c21)S(=O)(=O)c1ccc(C)cc1` (stereo unspecified) and `c1ccc(C2Nc3ccccc3C3OCCCC23)cc1` (stereo unspecified) cannot be ordered by TGI: greater than 100 µM for the first, greater than 100 µM for the second.

Compared with `CCOC(=O)NC(=O)c1cn(CCCOC(=O)CCCCCCCCCCC(=O)OCCCn2cc(C(=O)NC(=O)OCC)c(=O)[nH]c2=O)c(=O)[nH]c1=O`, `CCCCCCCCCCCC(=O)OCC1OC(OC)C(NC(=O)N(CCCl)N=O)C(O)C1O` (stereo unspecified) is lower in TGI: greater than 100 µM for the first, 37.6 µM for the second.

`COc1cc(/C=C(\C#N)c2ccccc2)cc(OC)c1` and `CN(CCC#N)c1ccc(/C=C(\C#N)c2ccc(Br)cc2)cc1` cannot be ordered by TGI: greater than 100 µM for the first, greater than 100 µM for the second.

Compared with `N#Cc1cccnc1Cl`, `COc1cc(NC(C)CCCN)c2nccc(C)c2c1` (stereo unspecified) is lower in TGI: greater than 100 µM for the first, 59.9 µM for the second.

Going from `C=CC/C=C/C/C=C/CCCCCCCc1cccc(O)c1C(=O)O` to `C1C[OH+]CC[OH+]CC[OH+]CC[OH+]CC[OH+]1.[Cl-].[V]`, the TGI falls from greater than 100 µM to 41.6 µM.

Going from `Cn1c(=O)c(Cc2ccccc2F)cc2cnc(NC3CCOCC3)nc21` to `Cc1[nH]c2ccccc2c(=O)c1CC=C(Cl)Cl`, the GI50 falls from greater than 25 µM to 18.6 µM.

First: CCn1c(SCc2ccc(C)cc2)nnc1-c1nn(-c2ccc(Cl)cc2Cl)c(-c2ccc(Cl)cc2)c1C
Second: CN(CCC#N)c1ccc(/C=C(\C#N)c2ccc(Br)cc2)cc1
The GI50 of the first is lower: 1.79 µM for the first, greater than 100 µM for the second.

With `C1C[OH+]CC[OH+]CC[OH+]CC[OH+]CC[OH+]1.[Cl-].[V]` the GI50 was 6.03 µM.

These molecules were tested on SF-539 CNS (assay: NCI anticancer screen, dose series, 48 h).

Compared with `Nc1ccc(-c2nc3ccc(Cc4ccc5nc(-c6ccc(N)cc6)[nH]c5c4)cc3[nH]2)cc1`, `CN(C)c1cc[c]([Sn]([c]2ccc(N(C)C)cc2)([c]2ccc(N(C)C)cc2)[c]2ccc(N(C)C)cc2)cc1` is 8.3-fold higher in GI50: 1.91 µM for the first, 15.8 µM for the second.

Going from `CC(CO)(CO)NCCCCn1ccc2c1C(=O)c1c(c(O)c3ccccc3c1O)C2=O` to `COc1ccc(CCN2COc3c([C@@H](C)CCC=C(C)C)ccc(C)c3C2)cc1OC`, the GI50 falls from 15.3 µM to 4.48 µM (3.4-fold).

In the case of `CCSc1nc(SCC)c2cn[nH]c2n1`, the GI50 was 21.8 µM.

Going from `Nc1ccc(-c2nc3ccc(Cc4ccc5nc(-c6ccc(N)cc6)[nH]c5c4)cc3[nH]2)cc1` to `CCN(CC)c1ccc(N=Nc2ccc(-c3nc4ccc[n+](C)c4s3)cc2)cc1`, the TGI rises from 3.91 µM to 23 µM (5.9-fold).

`O=C1[C@@H]2C(c3ccccc3F)=NO[C@@H]2C(=O)N1c1ccc(Cc2ccc(N3C(=O)[C@H]4C(c5ccccc5F)=NO[C@H]4C3=O)cc2)cc1` and `Clc1ccc2c(c1)-c1c3c(nn1-c1ccccc1)-c1ccccc1SC3O2` (stereo unspecified) cannot be ordered by TGI: greater than 100 µM for the first, greater than 100 µM for the second.

First: C=CCc1ccc(Oc2cc(CC=C)c3c(c2O)O[C@@H](CO)[C@H]3c2ccc(O)c(-c3cc(CC=C)ccc3O)c2)cc1
Second: CC(CO)(CO)NCCCCn1ccc2c1C(=O)c1c(c(O)c3ccccc3c1O)C2=O
The TGI of the first is higher: greater than 100 µM for the first, 47.1 µM for the second.

`Cn1c2ccccc2c(=O)c2ccc(Cl)cc21` and `O=C1CCC(O)=C1N=Nc1ccccc1` cannot be ordered by TGI: greater than 10 µM for the first, greater than 100 µM for the second.

`O=C(NCO)NCOCn1c(=O)n(CO)c(=O)n(CO)c1=O` and `CCCSc1nc(COC(=O)NC)c(COC(=O)NC)n1C` cannot be ordered by TGI: greater than 100 µM for the first, greater than 100 µM for the second.

First: CCSc1nc(SCC)c2cn[nH]c2n1
Second: NC(=O)NCc1c(C(N)=O)ncn1Cc1ccccc1
The TGI of the first is lower: 82.9 µM for the first, greater than 100 µM for the second.

Compared with `COc1ccc(CCN2COc3c([C@@H](C)CCC=C(C)C)ccc(C)c3C2)cc1OC`, `CN(C)c1cc[c]([Sn]([c]2ccc(N(C)C)cc2)([c]2ccc(N(C)C)cc2)[c]2ccc(N(C)C)cc2)cc1` is 2.1-fold higher in TGI: 15.9 µM for the first, 33.4 µM for the second.

Work on `O=C1OC2CCCC[C@@H]2C2C[C@]34CCCCC3[C@@H](C(=O)O4)C12` (stereo partly specified) yielded a TGI greater than 100 µM.
